# Entries after “also recorded” stand apart in the source; their conditions may differ. Read-outs that look alike come from different tables or passages of the source.
# What was measured:
# [1] = test system: S. typhimurium NM2009; experiment: Genotoxicity assay, induction of umu gene expression; assay type: cell-based, Salmonella typhimurium; conditions: for genotoxic activity (induction of umu gene expression): 0-160 µM, without P450; for cytotoxic activity: at concentrations of 80 and 160 µM, tester strain NM2009
# [2] = molecular target: P450 3A4 (Homo sapiens, UniProt P08684); experiment: Spectral binding titration with P450 3A4
# Sequence of P450 3A4 (P08684 whole entry): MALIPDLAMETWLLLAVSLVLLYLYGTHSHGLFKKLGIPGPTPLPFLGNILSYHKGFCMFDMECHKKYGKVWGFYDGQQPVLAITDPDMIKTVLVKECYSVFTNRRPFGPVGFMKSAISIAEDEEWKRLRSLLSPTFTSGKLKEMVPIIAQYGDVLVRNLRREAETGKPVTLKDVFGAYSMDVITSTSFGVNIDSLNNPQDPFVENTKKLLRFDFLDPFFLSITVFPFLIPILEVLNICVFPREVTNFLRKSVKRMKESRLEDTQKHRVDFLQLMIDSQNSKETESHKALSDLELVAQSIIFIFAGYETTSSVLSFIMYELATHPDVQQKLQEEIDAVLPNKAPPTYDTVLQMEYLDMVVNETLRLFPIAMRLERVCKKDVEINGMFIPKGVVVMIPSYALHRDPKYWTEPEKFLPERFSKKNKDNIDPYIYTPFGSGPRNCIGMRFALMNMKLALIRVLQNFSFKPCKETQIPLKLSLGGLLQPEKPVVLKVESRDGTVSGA
# [3] = molecular target: T1, P450 1B1 (Homo sapiens, UniProt Q16678); experiment: Spectral binding titration with P450 1B1
# T1 sequence (Q16678 1-543): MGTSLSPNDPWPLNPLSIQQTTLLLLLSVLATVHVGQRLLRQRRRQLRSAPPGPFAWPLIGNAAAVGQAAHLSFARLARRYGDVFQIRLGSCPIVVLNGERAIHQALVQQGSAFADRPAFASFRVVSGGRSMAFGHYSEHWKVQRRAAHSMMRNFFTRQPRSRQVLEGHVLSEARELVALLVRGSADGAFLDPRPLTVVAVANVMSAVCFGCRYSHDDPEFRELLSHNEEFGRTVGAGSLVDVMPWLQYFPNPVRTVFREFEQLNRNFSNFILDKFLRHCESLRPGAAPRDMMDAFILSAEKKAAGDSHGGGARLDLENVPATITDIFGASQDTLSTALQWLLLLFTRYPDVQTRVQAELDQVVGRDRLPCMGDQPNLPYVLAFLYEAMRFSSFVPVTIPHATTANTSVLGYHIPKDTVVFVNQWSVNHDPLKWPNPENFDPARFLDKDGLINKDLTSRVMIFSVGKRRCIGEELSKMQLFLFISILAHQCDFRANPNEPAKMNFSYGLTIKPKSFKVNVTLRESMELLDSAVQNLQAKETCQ
# [4] = molecular target: T2, P450 2A6 (Homo sapiens, UniProt P11509); experiment: Oxidation by P450 2A6; assay type: in vitro ADME; conditions: 50 µM substrate, reconstituted system, LC-MS
# T2 sequence (P11509 1-494): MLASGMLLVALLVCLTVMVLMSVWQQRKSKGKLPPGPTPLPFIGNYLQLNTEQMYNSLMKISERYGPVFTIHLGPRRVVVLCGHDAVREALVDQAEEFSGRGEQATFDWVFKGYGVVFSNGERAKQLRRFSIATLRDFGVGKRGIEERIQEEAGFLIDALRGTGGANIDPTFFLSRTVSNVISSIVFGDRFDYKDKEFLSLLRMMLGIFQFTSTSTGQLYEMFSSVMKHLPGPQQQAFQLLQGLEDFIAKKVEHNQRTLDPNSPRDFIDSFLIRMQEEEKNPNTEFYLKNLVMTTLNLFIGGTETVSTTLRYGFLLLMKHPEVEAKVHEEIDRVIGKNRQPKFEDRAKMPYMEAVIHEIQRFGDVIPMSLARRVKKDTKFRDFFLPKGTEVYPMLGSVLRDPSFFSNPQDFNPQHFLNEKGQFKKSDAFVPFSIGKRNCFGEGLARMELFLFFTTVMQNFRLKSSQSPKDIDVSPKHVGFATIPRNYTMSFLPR
# [5] = molecular target: T3, P450 2A13 (Homo sapiens, UniProt Q16696); experiment: Oxidation by P450 2A13; assay type: in vitro ADME; conditions: 50 µM substrate, reconstituted system, LC-MS
# T3 sequence (Q16696 1-494): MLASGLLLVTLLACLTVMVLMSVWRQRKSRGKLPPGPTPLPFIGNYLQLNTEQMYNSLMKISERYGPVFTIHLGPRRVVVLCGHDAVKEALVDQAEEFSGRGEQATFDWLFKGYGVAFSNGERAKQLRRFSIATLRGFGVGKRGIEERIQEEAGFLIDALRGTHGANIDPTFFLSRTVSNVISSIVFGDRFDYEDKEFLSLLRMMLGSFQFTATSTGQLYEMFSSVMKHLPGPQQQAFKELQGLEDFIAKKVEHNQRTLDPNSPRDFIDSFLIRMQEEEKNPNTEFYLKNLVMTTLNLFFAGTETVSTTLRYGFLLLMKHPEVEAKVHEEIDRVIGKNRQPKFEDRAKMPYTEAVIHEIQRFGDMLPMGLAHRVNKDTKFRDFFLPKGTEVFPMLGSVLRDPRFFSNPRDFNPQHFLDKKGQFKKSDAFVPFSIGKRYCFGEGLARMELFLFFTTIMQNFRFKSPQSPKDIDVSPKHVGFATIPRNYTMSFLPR
# [6] = molecular target: T4, P450 1A2 (Homo sapiens, UniProt P05177); experiment: Spectral binding titration with P450 1A2
# T4 sequence (P05177 1-516): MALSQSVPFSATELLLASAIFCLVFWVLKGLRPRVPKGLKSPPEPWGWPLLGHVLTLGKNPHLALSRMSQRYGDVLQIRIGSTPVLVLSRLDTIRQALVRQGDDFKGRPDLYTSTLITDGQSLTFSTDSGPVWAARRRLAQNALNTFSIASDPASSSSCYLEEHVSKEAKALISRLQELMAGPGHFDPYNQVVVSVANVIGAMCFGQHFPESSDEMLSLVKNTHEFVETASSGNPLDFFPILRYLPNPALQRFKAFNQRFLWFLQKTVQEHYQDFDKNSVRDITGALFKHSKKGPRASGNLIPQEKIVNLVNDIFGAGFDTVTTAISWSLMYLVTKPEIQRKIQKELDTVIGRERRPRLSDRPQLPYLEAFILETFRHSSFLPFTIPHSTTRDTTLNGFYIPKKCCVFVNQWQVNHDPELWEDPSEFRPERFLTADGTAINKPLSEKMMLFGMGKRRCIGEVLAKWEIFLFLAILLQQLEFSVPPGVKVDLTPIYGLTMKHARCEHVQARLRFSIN
# [7] = molecular target: P450 2C9 (Homo sapiens, UniProt P11712); experiment: Spectral binding titration with P450 2C9
# Sequence of P450 2C9 (P11712 whole entry): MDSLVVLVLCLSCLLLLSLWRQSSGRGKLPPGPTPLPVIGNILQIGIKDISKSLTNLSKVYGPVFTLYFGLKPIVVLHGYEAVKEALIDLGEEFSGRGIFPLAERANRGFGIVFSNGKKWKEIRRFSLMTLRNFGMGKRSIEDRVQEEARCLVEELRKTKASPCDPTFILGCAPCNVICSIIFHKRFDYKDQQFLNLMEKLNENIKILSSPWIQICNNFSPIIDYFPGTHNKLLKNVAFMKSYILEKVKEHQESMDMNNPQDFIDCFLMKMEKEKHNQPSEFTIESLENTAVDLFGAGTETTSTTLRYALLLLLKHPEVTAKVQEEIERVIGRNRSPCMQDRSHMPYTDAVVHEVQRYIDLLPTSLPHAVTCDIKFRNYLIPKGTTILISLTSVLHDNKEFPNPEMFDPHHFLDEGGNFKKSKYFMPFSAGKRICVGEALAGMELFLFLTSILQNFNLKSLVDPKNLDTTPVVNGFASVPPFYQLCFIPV
# [8] = molecular target: T2, P450 2A6; experiment: Spectral binding titration with P450 2A6
# [9] = molecular target: T3, P450 2A13; experiment: Spectral binding titration with P450 2A13
# [10] = test system: P450 2A13; conditions: cited from earlier work
# [11] = test system: P450 2A6; conditions: cited from earlier work
# [12] = test system: HepG2; conditions: cited from earlier work
# [13] = test system: Salmonella typhimurium TA1537 and TA1538; conditions: cited from earlier work
# [14] = test system: S. typhimurium TM677; conditions: cited from earlier work
# [15] = test system: S. typhimurium TA120; conditions: photomutagenesis assay; cited from earlier work
# [16] = molecular target: T3, P450 2A13; conditions: cited from earlier work
# [17] = molecular target: T2, P450 2A6; conditions: cited from earlier work
# [18] = non-classifiable as to carcinogenicity to humans; cited from earlier work
smiles,measurement,setting,value
"Oc1ccc2c(cc3ccc4cccc5ccc2c3c45)c1O [benzo[a]pyrene-7,8-diol, reference compound]",umu gene expression after metabolic activation (positive control),"[1]; with P450 1B1, results not shown",induced umu gene expression
"c1cc2c3c(cccc3c1)C1OC21 (centres unmarked) [1,2-epoxyacenaphthene, 1,2-Epoxyacenaphthene]",Kd,[2],6.2 ± 0.87 µM
same,binding spectra induced,[2]; P450 3A4,Type I
same,ΔAmax / Ks,[2]; P450 3A4,0.007
same,ΔAmax,"[2]; P450 3A4, ± SE",0.041 ± 0.002
same,spectral changes,[3],did not show any spectral changes
same,further oxidation by P450 2A6,[4],further oxidized
same,further oxidation by P450 2A13,[5],to a small extent
same,genotoxic activity (induction of umu gene expression),[1],Neither these four PAHs induced umu gene expression; also recorded: none of these four chemicals showed any genotoxic activity
same,cytotoxic activity,[1],10-20%
same,genotoxicity after metabolic activation with P450 2A6 and 2A13,[1],negative results
same,spectral changes,[6],did not show any spectral changes
same,spectral changes,[7],did not show any spectral changes
same,Kd,"[8]; Ks (spectral dissociation constant), P450 2A6, 1 µM P450, pH 7.4, ± SE",1.78 ± 0.25 µM
same,binding spectra induced,[8]; P450 2A6,Type I
same,ΔAmax / Ks,[8]; P450 2A6,0.035
same,ΔAmax,"[8]; P450 2A6, ± SE",0.062 ± 0.002
same,Kd,[9],0.16 ± 0.03 µM
same,binding spectra induced,[9]; P450 2A13,Type I
same,ΔAmax / Ks,[9]; P450 2A13,0.46
same,ΔAmax,"[9]; P450 2A13, ± SE",0.073 ± 0.002
same,Ks with P450 2A13 lower than with P450 2A6,[9]; P450 2A13 vs P450 2A6,~ 10 fold
OC1Cc2cccc3cccc1c23 (centres unmarked) [1-acenaphthenol],Kd,[2],7.8 ± 2.2 µM
same,binding spectra induced,[2]; P450 3A4,very weak or undetectable
same,ΔAmax / Ks,[2]; P450 3A4,0.002
same,ΔAmax,"[2]; P450 3A4, ± SE",0.013 ± 0.001
same,spectral changes,[3],did not show any spectral changes
same,genotoxic activity (induction of umu gene expression),[1],Neither these four PAHs induced umu gene expression; also recorded: none of these four chemicals showed any genotoxic activity
same,cytotoxic activity,[1],10-20%
same,genotoxicity after metabolic activation with P450 2A6 and 2A13,[1],negative results
same,spectral changes,[6],did not show any spectral changes
same,spectral changes,[7],did not show any spectral changes
same,binding spectra induced,[8]; P450 2A6,very weak or undetectable
same,Kd,[9],0.48 ± 0.03 µM
same,binding spectra induced,[9]; P450 2A13,Type I
same,ΔAmax / Ks,[9]; P450 2A13,0.13
same,ΔAmax,"[9]; P450 2A13, ± SE",0.061±0.001
C1=Cc2cccc3cccc1c23 [acenaphthylene],Kd,[2],13 ± 2.7 µM
same,ΔAmax,[2],0.030±0.002
same,ΔAmax / Ks,[2]; P450 3A4,0.002
same,inhibition of coumarin 7-hydroxylation activity,[10],inhibit
same,inhibition of coumarin 7-hydroxylation activity,[11],inhibit
same,cytotoxicity,[12],non-cytotoxic
same,mutagenicity,[13],non-mutagenic
same,mutagenicity,[14],mutagenic
same,photomutagenicity,[15],weakly mutagenic
same,genotoxic activity (induction of umu gene expression),[1],Neither these four PAHs induced umu gene expression; also recorded: none of these four chemicals showed any genotoxic activity
same,cytotoxic activity,[1],10-20%
same,genotoxicity after metabolic activation with P450 2A6 and 2A13,[1],negative results
same,binding spectra induced,[16],Type I
same,binding spectra induced,[17],Type I
same,ΔAmax,[8],0.076±0.002
same,ΔAmax / Ks,[8]; P450 2A6,0.017
same,ΔAmax,[9],0.050±0.004
same,ΔAmax / Ks,[9]; P450 2A13,0.081
c1cc2c3c(cccc3c1)CC2 [acenaphthene],Kd,[2],19 ± 3.5 µM
same,ΔAmax / Ks,[2]; P450 3A4,0.002
same,ΔAmax,"[2]; P450 3A4, ± SE",0.040±0.003
same,inhibition of coumarin 7-hydroxylation activity,[10]; P450 2A13,inhibit
same,inhibition of coumarin 7-hydroxylation activity,[11]; P450 2A6,inhibit
same,cytotoxicity,[12]; human liver tumor cell lines and HepG2 in vitro,non-cytotoxic
same,mutagenicity,[13]; TA1537 and TA1538,non-mutagenic
same,photomutagenicity,[15],weakly mutagenic
same,genotoxic activity (induction of umu gene expression),[1],Neither these four PAHs induced umu gene expression
same,genotoxic activity (induction of umu gene expression),[1]; listed as Acenaphthene,none of these four chemicals showed any genotoxic activity
same,cytotoxic activity,[1],10-20%
same,genotoxicity after metabolic activation with P450 2A6 and 2A13,[1],negative results
same,binding spectra induced,[16]; P450 2A13,Type I
same,binding spectra induced,[17]; P450 2A6,Type I
same,ΔAmax / Ks,[8]; P450 2A6,0.055
same,ΔAmax,"[8]; P450 2A6, ± SE",0.066±0.002
same,ΔAmax / Ks,[9]; P450 2A13,0.15
same,ΔAmax,"[9]; P450 2A13, ± SE",0.074±0.005
same,IARC category,[18],Group 3
